{"source": "the supplement of paper PMC10307832", "assay_in_all_cases": "relative viability (nuclei count vs DMSO), 5 days (fraction); higher = more cells survive", "key": {"Masitinib + Dasatinib": {"compound": "Cc1ccc(NC(=O)c2ccc(CN3CCN(C)CC3)cc2)cc1Nc1nc(-c2cccnc2)cs1 [Masitinib] + Cc1nc(Nc2ncc(C(=O)Nc3c(C)cccc3Cl)s2)cc(N2CCN(CCO)CC2)n1 [Dasatinib] (partner 0.075 µM)", "method_in_brief": "(§1)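 Relative viability equals treated-well nuclei counts divided by vehicle-well nuclei counts. Counts came from 4× images of lung cancer cell lines grown in 1536-well plates for 5 days after pin-tool dosing on the day after seeding. Dosing used one drug alone or a fixed anchor-drug dose plus five library-drug doses (not always all listed) in √10 steps, and values are medians of duplicate plates.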"}, "[1]": {"compound": "CC1=CC(=CC=C1)NC2=NC(=CS2)C3=CC=NC=C3 + CC(=O)c1c(C)c2cnc(Nc3ccc(N4CCNCC4)cn3)nc2n(C2CCCC2)c1=O [Palbociclib] (partner 0.5 µM)", "method_in_brief": "as §1"}, "Masitinib + Pemetrexed": {"compound": "Cc1ccc(NC(=O)c2ccc(CN3CCN(C)CC3)cc2)cc1Nc1nc(-c2cccnc2)cs1 [Masitinib] + Nc1nc2[nH]cc(CCc3ccc(C(=O)N[C@@H](CCC(=O)O)C(=O)O)cc3)c2c(=O)[nH]1 [Pemetrexed] (partner 0.2 µM)", "method_in_brief": "as §1"}, "Masitinib + Foretinib": {"compound": "Cc1ccc(NC(=O)c2ccc(CN3CCN(C)CC3)cc2)cc1Nc1nc(-c2cccnc2)cs1 [Masitinib] + COc1cc2c(Oc3ccc(NC(=O)C4(C(=O)Nc5ccc(F)cc5)CC4)cc3F)ccnc2cc1OCCCN1CCOCC1 [Foretinib] (partner 0.25 µM)", "method_in_brief": "as §1"}}}
{"cell line": "UMC-11", "values": [{"measurement": "relative viability", "setting": "Masitinib + Dasatinib; first compound 0.03162 µM", "result": 0.35}, {"measurement": "relative viability", "setting": "Masitinib + Dasatinib; first compound 0.1 µM", "result": 0.535}, {"measurement": "relative viability", "setting": "Masitinib + Dasatinib; first compound 0.3162 µM", "result": 0.556}, {"measurement": "relative viability", "setting": "Masitinib + Dasatinib; first compound 1 µM", "result": 0.509}, {"measurement": "relative viability", "setting": "[1]; first compound 0.08 µM", "result": 0.339}, {"measurement": "relative viability", "setting": "[1]; first compound 0.253 µM", "result": 0.311}, {"measurement": "relative viability", "setting": "[1]; first compound 0.8 µM", "result": 0.305}, {"measurement": "relative viability", "setting": "[1]; first compound 2.53 µM", "result": 0.334}, {"measurement": "relative viability", "setting": "[1]; first compound 8 µM", "result": 0.313}, {"measurement": "relative viability", "setting": "Masitinib + Pemetrexed; first compound 0.01 µM", "result": 0.755}, {"measurement": "relative viability", "setting": "Masitinib + Pemetrexed; first compound 0.03162 µM", "result": 0.751}, {"measurement": "relative viability", "setting": "Masitinib + Pemetrexed; first compound 0.1 µM", "result": 0.783}, {"measurement": "relative viability", "setting": "Masitinib + Pemetrexed; first compound 0.3162 µM", "result": 0.813}, {"measurement": "relative viability", "setting": "Masitinib + Pemetrexed; first compound 1 µM", "result": 0.882}, {"measurement": "relative viability", "setting": "Masitinib + Foretinib; first compound 0.03162 µM", "result": 0.951}, {"measurement": "relative viability", "setting": "Masitinib + Foretinib; first compound 0.1 µM", "result": 1.12}, {"measurement": "relative viability", "setting": "Masitinib + Foretinib; first compound 0.3162 µM", "result": 1.17}, {"measurement": "relative viability", "setting": "Masitinib + Foretinib; first compound 1 µM", "result": 1.15}]}
